The target in data set [1] is T1, GABA transporter (Rattus norvegicus, UniProt P31647+P23978+P31646+P48056). The class given is functional, subcellular, Brain.
Data set [2] is filed under the species Felis catus. Kind of data set: In vitro effect of Gamma-aminobutyric acid enhancement on single neurons of cat spinal cord (ND = no data, No significant activity). The format is functional.
Data set [3] is filed under the species Felis catus. Kind of data set: In vitro effect of glycine antagonism on single neurons of cat spinal cord; Glycine antagonists are indicated by Delta symbol. The format is functional, organism-based. Conditions: filed as antagonist.
Data set [4] addresses GABA-A receptor; anion channel.
Data set [5] can be described thus: I/U ratio for neutral amino acids. The format is functional.
Data set [6] in a line: I/U ratio for neutral amino acids. The format is functional.
Data set [7] has as its target Gamma-aminobutyric acid receptor subunit gamma-1 (Rattus norvegicus, UniProt P23574). Kind of data set: In vitro affinity for GABA binding sites on purified synaptic membranes from rat brain.
In data set [8] the target is T1, GABA transporter. The data set is described as follows: In vitro effect on GABA uptake in a crude preparation of synaptosomes from rat brain. The format is functional, subcellular.
The species named for data set [9] is Felis catus. Kind of data set: In vitro effect of GABA enhancement on single neurons in the cat spinal cord;. The class given is functional, organism-based.
The species entered for data set [10] is Felis catus. The data set is described as follows: In vitro effect of Gamma-aminobutyric acid enhancement on single neurons of cat spinal cord (No significant activity). The format is functional.
The species entered for data set [11] is Felis catus. The data set is described as follows: In vitro effect of glycine antagonism on single neurons in the cat spinal cord; Glycine antagonists are indicated by the Delta symbol. The class given is functional, organism-based. The settings on record: filed as antagonist.
Data set [12] concerns the target T2, GABA-A receptor; anion channel (Homo sapiens) (UniProt P14867+P47870+P18507+P28472+P48169+Q99928+Q9UN88+P34903+O00591+O14764+Q8N1C3+P18505+P78334+P47869+P31644+Q16445). Kind of data set: In vitro effect on Gamma-aminobutyric acid agonism on single neurons of cat spinal cord (- is less active than GABA). Conditions: Felis catus, filed as partial agonist, target entry is the homologue from another species. The class given is functional, tissue-based.

Data set [13] has as its target T2, GABA-A receptor; anion channel (Homo sapiens). Conditions: Felis catus; Spinal cord; filed as agonist.
The species entered for data set [14] is Felis catus. The data set is described as follows: In vitro effect of Gamma-aminobutyric acid enhancement on single neurons of cat spinal cord. The class given is functional.

Molecules are shown by their SMILES. Calls of active or inactive are those of the source. The calls are words filed in the database; no cut-off is given here. Some results are limits rather than exact numbers.

Chain of Gamma-aminobutyric acid receptor subunit gamma-1 (P23574 whole entry): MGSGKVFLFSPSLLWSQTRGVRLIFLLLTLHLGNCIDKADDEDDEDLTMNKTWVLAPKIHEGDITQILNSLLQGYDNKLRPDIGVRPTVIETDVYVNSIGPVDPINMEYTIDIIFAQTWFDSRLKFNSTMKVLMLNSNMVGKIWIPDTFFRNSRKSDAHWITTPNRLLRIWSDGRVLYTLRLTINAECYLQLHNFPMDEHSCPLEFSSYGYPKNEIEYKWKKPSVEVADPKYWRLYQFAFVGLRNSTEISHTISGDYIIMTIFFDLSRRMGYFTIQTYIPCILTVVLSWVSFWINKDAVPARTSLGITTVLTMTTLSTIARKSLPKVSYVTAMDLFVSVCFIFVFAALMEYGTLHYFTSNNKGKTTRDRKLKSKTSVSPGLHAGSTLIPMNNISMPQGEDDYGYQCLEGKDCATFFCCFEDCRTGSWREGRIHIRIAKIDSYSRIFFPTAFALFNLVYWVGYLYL
Description for physchem: Dissociation constant (pKa)

As to `Oc1nsc2c1CCNCC2`, the IC50 (in general, the concentration that gives 50% inhibition) on GABA transporter [1] was 400 µM; in data set [4], 31 µM. In addition, in the data set listed under Felis catus [2], the GABA enhancement result was “inactive”. Also, the Glycine antagonism entry in the data set filed under Felis catus [3] was “Antagonist”. In data set [5], the Ratio stood at 200.

For `Oc1noc2c1CNCC2`, the Ratio in data set [6] was 2500. In addition, the IC50 is 72 µM in data set [7] and 160 µM at GABA transporter [8]. In addition, in the data set filed under Felis catus [9], the GABA enhancement result was “Active”.

`Oc1noc2c1CCNCC2`: the values for the IC50 (at GABA transporter [1]; in data set [4]) were more than 500 µM and 15 µM, respectively. Moreover, in the data set listed under Felis catus [10], the GABA enhancement result is “inactive”. In addition, the pKa (in general, the pH at which an ionisable group is half protonated) in the data set “physchem” came to 4.8. Further, the Glycine antagonism entry in the data set listed under Felis catus [11] is “Antagonist”. Further, in data set [5], the Ratio turned out to be 4000.

Take `COc1noc2c1CCNC2`: in “physchem”, the pKa came out at 7.1.

As to `COc1noc2c1CNCC2`, in “physchem”, the pKa worked out at 7.7.

Compound `COC(=O)N1CCc2snc(O)c2CC1` returned a pKa in the data set “physchem” of 7.6. The pKa values of the last two compounds are within 0.2 log units of each other.

As to `Oc1nsc2c1CCNC2`, the IC50 against GABA transporter [1] amounted to 220 µM; in [4] it was 42 µM. Besides, in data set [12], the GABA agonism result was “Partial agonist”. In “physchem”, this compound yielded a pKa of 6.1. In addition, the Ratio in data set [5] was determined as 16.

For `NCCCC(=O)O`, the GABA agonism entry in [13] was “Agonist”.

Take `Oc1nsc2c1CNCC2`: the IC50 is 230 µM at GABA transporter [1] and more than 100 µM in [4]. Also, the pKa in the data set “physchem” worked out at 6.1. Also, the GABA enhancement entry in the data set filed under Felis catus [14] was “Active”. In addition, the Ratio in [5] amounted to 63.

As for `COC(=O)N1CCc2snc(O)c2C1`, the pKa in “physchem” worked out at 7.4.

As to `O=C(O)N1CCc2onc(O)c2CC1`, in “physchem”, the pKa was determined as 5.6.

Consider `COC(=O)N1CCc2c(O)nsc2C1`, for which the pKa in the data set “physchem” stood at 7.3.

`COC(=O)N1CCc2c(O)noc2C1` displayed a pKa in the data set “physchem” of 5.3.

Source of the values: ChEMBL document CHEMBL1122237, “4,5,6,7-Tetrahydroisothiazolo[5,4-c]pyridin-3-ol and related analogues of THIP. Synthesis and biological activity” (J Med Chem, 1983).
